Structures are written as SMILES. Converted amounts (≈) assume the structure as drawn.

The test system of series [1] is Staphylococcus aureus. In words: Antibacterial activity against Staphylococcus aureus ATCC 4330 assessed as inhibition of bacterial growth measured after 16 to 24 hrs by CLSI based broth dilution method. Particulars: time 16-24 hrs. The class given is functional.
The test system of series [2] is Clostridioides difficile. In words: Antibacterial activity against Clostridioides difficile ATCC 43255 assessed as inhibition of bacterial growth measured after 24 hrs by CLSI based broth dilution method. The class given is functional.
The nature of series [3]: Aqueous kinetic solubility of the compound at pH 7.4 incubated for 2 hrs by UPLC-MS analysis. The class given is physicochemical. To be noted: read-out: Kinetic_solubility.
Series [4] relates to Staphylococcus aureus. In words: Antibacterial activity against methicillin-resistant Staphylococcus aureus assessed as inhibition of bacterial growth measured after 16 to 24 hrs by CLSI based broth dilution method. The class given is functional. Particulars: time 16-24 hrs.
Series [5] concerns Clostridioides difficile. Briefly: Antibacterial activity against Clostridioides difficile RT293/ST129/A+B+ assessed as inhibition of bacterial growth measured after 24 hrs by CLSI based broth dilution method. The class given is functional.
Series [6] concerns Clostridioides difficile. In words: Antibacterial activity against Clostridioides difficile RT027/ST1/A+B+CDT+ assessed as inhibition of bacterial growth measured after 24 hrs by CLSI based broth dilution method. The class given is functional.
Series [7] deals with Clostridioides difficile. Briefly: Antibacterial activity against Clostridioides difficile RT078/ST11/A+B+CDT+ assessed as inhibition of bacterial growth measured after 24 hrs by CLSI based broth dilution method. The class given is functional.
Series [8] relates to Clostridioides difficile. Briefly: Antibacterial activity against Clostridioides difficile RT001/ST3/A+B+ assessed as inhibition of bacterial growth measured after 24 hrs by CLSI based broth dilution method. The class given is functional.
Series [9] deals with Clostridioides difficile. In words: Antibacterial activity against Clostridioides difficile RT017/ST37/A-B+ assessed as inhibition of bacterial growth measured after 24 hrs by CLSI based broth dilution method. The class given is functional.
The subject of series [10] is Clostridioides difficile. In words: Antibacterial activity against Clostridioides difficile NT/ST67/A+B+CDT+ assessed as inhibition of bacterial growth measured after 24 hrs by CLSI based broth dilution method. The class given is functional.
The test system of series [11] is Clostridioides difficile. In words: Antibacterial activity against Clostridioides difficile NT/ST221/A+B+CDT+ assessed as inhibition of bacterial growth measured after 24 hrs by CLSI based broth dilution method. The format is functional.
The test system of series [12] is Clostridioides difficile. Briefly: Antibacterial activity against Clostridioides difficile RT130/ST5/A+B+CDT+ assessed as inhibition of bacterial growth measured after 24 hrs by CLSI based broth dilution method. The class given is functional.
The test system of series [13] is Clostridioides difficile. In words: Antibacterial activity against Clostridioides difficile RT012/ST54/A+B+ assessed as inhibition of bacterial growth measured after 24 hrs by CLSI based broth dilution method. The format is functional.
Series [14] has as its system Clostridioides difficile. Briefly: Antibacterial activity against Clostridioides difficile RT002/ST8/A+B+ assessed as inhibition of bacterial growth measured after 24 hrs by CLSI based broth dilution method. The class given is functional.
The test system of series [15] is Clostridioides difficile. Briefly: Antibacterial activity against Clostridioides difficile RT018/ST17/A+B+ assessed as inhibition of bacterial growth measured after 24 hrs by CLSI based broth dilution method. The format is functional.
In series [16] the test system is Clostridioides difficile. In words: Antibacterial activity against Clostridioides difficile RT014/ST14/A+B+ assessed as inhibition of bacterial growth measured after 24 hrs by CLSI based broth dilution method. The format is functional.
The subject of series [17] is Clostridioides difficile. Briefly: Antibacterial activity against Clostridioides difficile RT015/ST35/A+B+ assessed as inhibition of bacterial growth measured after 24 hrs by CLSI based broth dilution method. The class given is functional.

As to `C/C=C(\NC(=O)c1csc(-c2csc(-c3ccc4c(n3)-c3csc(n3)[C@H]([C@@H](C)O)NC(=O)c3csc(n3)[C@H](C(C)C)NC(=O)c3csc(n3)/C(=C/C)NC(=O)[C@H]([C@@H](C)O)NC(=O)c3csc-4n3)n2)n1)C(=O)NCCn1ccnc1[N+](=O)[O-]`, the figures for the MIC in the series on Staphylococcus aureus [1] and in the series with Clostridioides difficile [2] were 1 µg/mL (≈ 0.816 µM) and 0.5 µg/mL (≈ 0.408 µM), respectively.
On the same counts, the results for `C/C=C(\NC(=O)c1csc(-c2csc(-c3ccc4c(n3)-c3csc(n3)[C@H]([C@@H](C)O)NC(=O)c3csc(n3)[C@H](C(C)C)NC(=O)c3csc(n3)/C(=C/C)NC(=O)[C@H]([C@@H](C)O)NC(=O)c3csc-4n3)n2)n1)C(=O)NCCN1CCOCC1` are 1 µg/mL (≈ 0.834 µM) and 1 µg/mL (≈ 0.834 µM).
In the same order, the values of `C/C=C1\NC(=O)[C@H]([C@@H](C)O)NC(=O)c2csc(n2)-c2ccc(-c3nc(-c4nc(C(=O)NC5(C(=O)NCCn6cc([N+](=O)[O-])nc6C)CC5)cs4)cs3)nc2-c2csc(n2)[C@H]([C@@H](C)O)NC(=O)c2csc(n2)[C@H](C(C)C)NC(=O)c2csc1n2` are 1 µg/mL (≈ 0.807 µM) and 0.5 µg/mL (≈ 0.403 µM).
As for `C/C=C(\NC(=O)c1csc(-c2csc(-c3ccc4c(n3)-c3csc(n3)[C@H]([C@@H](C)O)NC(=O)c3csc(n3)[C@H](C(C)C)NC(=O)c3csc(n3)/C(=C/C)NC(=O)[C@H]([C@@H](C)O)NC(=O)c3csc-4n3)n2)n1)C(=O)NCCN1CCN(C(C)C)CC1.Cl`, the solubility kinetic at 2 h in [3] was determined as 3 µg/mL.
Take `C/C=C(\NC(=O)c1csc(-c2csc(-c3ccc4c(n3)-c3csc(n3)[C@H]([C@@H](C)O)NC(=O)c3csc(n3)[C@H](C(C)C)NC(=O)c3csc(n3)/C(=C/C)NC(=O)[C@H]([C@@H](C)O)NC(=O)c3csc-4n3)n2)n1)C(=O)NCC(C)=O`: the figures for the MIC in the series on Staphylococcus aureus [1] and in the series on Clostridioides difficile [2] were 0.5 µg/mL (≈ 0.438 µM) and 1 µg/mL (≈ 0.875 µM), respectively. The solubility kinetic at 2 h in series [3] is 0.07 µg/mL (≈ 0.0613 µM).
With `C/C(=C\C(=O)OCCCCCCCCC(=O)O)C[C@@H]1OC[C@H](C[C@@H]2O[C@H]2[C@@H](C)[C@H](C)O)[C@@H](O)[C@H]1O` [MUPIROCIN], in the series with Staphylococcus aureus [4], the MIC50 is over 8 µg/mL.
In the case of `C/C=C1\NC(=O)[C@H]([C@@H](C)O)NC(=O)c2csc(n2)-c2ccc(-c3nc(-c4nc(C(=O)NC5(C(=O)NCCN6C(=O)CNC6=O)CC5)cs4)cs3)nc2-c2csc(n2)[C@H]([C@@H](C)O)NC(=O)c2csc(n2)[C@H](C(C)C)NC(=O)c2csc1n2`, the minimal inhibitory concentration (MIC) was 1 µg/mL (≈ 0.825 µM) in the series with Staphylococcus aureus [1] and over 16 µg/mL in the series on Clostridioides difficile [2].
On the same counts, the results for `C/C=C(\NC(=O)c1csc(-c2csc(-c3ccc4c(n3)-c3csc(n3)[C@H]([C@@H](C)O)NC(=O)c3csc(n3)[C@H](C(C)C)NC(=O)c3csc(n3)/C(=C/C)NC(=O)[C@H]([C@@H](C)O)NC(=O)c3csc-4n3)n2)n1)C(=O)NCCCN1CCOCC1` are 1 µg/mL (≈ 0.824 µM) and 0.5 µg/mL (≈ 0.412 µM).
On the same counts, the results for `C/C=C1\NC(=O)[C@H]([C@@H](C)O)NC(=O)c2csc(n2)-c2ccc(-c3nc(-c4nc(C(=O)NC5(C(=O)NCCn6ccnc6[N+](=O)[O-])CC5)cs4)cs3)nc2-c2csc(n2)[C@H]([C@@H](C)O)NC(=O)c2csc(n2)[C@H](C(C)C)NC(=O)c2csc1n2` are 1 µg/mL (≈ 0.816 µM) and 0.5 µg/mL (≈ 0.408 µM).
On to `C/C=C1\NC(=O)[C@H]([C@@H](C)O)NC(=O)c2csc(n2)-c2ccc(-c3nc(-c4nc(C(=O)NC5(C(=O)NCCCN6CCN(C(C)C)CC6)CC5)cs4)cs3)nc2-c2csc(n2)[C@H]([C@@H](C)O)NC(=O)c2csc(n2)[C@H](C(C)C)NC(=O)c2csc1n2.Cl`, for which the solubility kinetic at 2 h in [3] is 2.8 µg/mL.
For the molecule `C/C=C1\NC(=O)[C@H]([C@@H](C)O)NC(=O)c2csc(n2)-c2ccc(-c3nc(-c4nc(C(=O)NC5(C(=O)NCCCN6CCOCC6)CC5)cs4)cs3)nc2-c2csc(n2)[C@H]([C@@H](C)O)NC(=O)c2csc(n2)[C@H](C(C)C)NC(=O)c2csc1n2`, the minimum inhibitory concentration (MIC) with Staphylococcus aureus [1] and with Clostridioides difficile [2] was 1 µg/mL (≈ 0.824 µM) throughout.
On to `C/C=C1\NC(=O)[C@H]([C@@H](C)O)NC(=O)c2csc(n2)-c2ccc(-c3nc(-c4nc(C(=O)NC5(C(=O)NCCn6c([N+](=O)[O-])cnc6C)CC5)cs4)cs3)nc2-c2csc(n2)[C@H]([C@@H](C)O)NC(=O)c2csc(n2)[C@H](C(C)C)NC(=O)c2csc1n2`, for which the MIC in the series with Staphylococcus aureus [1] and with Clostridioides difficile [2] was 0.5 µg/mL (≈ 0.403 µM) each time.
As for `C/C=C1\NC(=O)[C@H]([C@@H](C)O)NC(=O)c2csc(n2)-c2ccc(-c3nc(-c4nc(C(=O)NC5(C(=O)NCCN6CCOCC6)CC5)cs4)cs3)nc2-c2csc(n2)[C@H]([C@@H](C)O)NC(=O)c2csc(n2)[C@H](C(C)C)NC(=O)c2csc1n2`, the minimum inhibitory concentration (MIC) in the series on Staphylococcus aureus [1] amounted to 1 µg/mL (≈ 0.834 µM); in the series on Clostridioides difficile [2], 2 µg/mL (≈ 1.67 µM).
On to `C/C=C1\NC(=O)[C@H]([C@@H](C)O)NC(=O)c2csc(n2)-c2ccc(-c3nc(-c4nc(C(=O)NC5(C(=O)NCCCN6CCN(C(C)C)CC6)CC5)cs4)cs3)nc2-c2csc(n2)[C@H]([C@@H](C)O)NC(=O)c2csc(n2)[C@H](C(C)C)NC(=O)c2csc1n2`, for which the MIC with Staphylococcus aureus [1] and in the series on Clostridioides difficile [2] was 1 µg/mL (≈ 0.797 µM) each time. The solubility kinetic at 2 h in series [3] worked out at 120 µg/mL (≈ 95.6 µM).
Take `C/C=C(\NC(=O)c1csc(-c2csc(-c3ccc4c(n3)-c3csc(n3)[C@H]([C@@H](C)O)NC(=O)c3csc(n3)[C@H](C(C)C)NC(=O)c3csc(n3)/C(=C/C)NC(=O)[C@H]([C@@H](C)O)NC(=O)c3csc-4n3)n2)n1)C(=O)NCCn1cc([N+](=O)[O-])nc1C`: the MIC with Staphylococcus aureus [1] is 1 µg/mL (≈ 0.807 µM); with Clostridioides difficile [2] it was 0.25 µg/mL (≈ 0.202 µM).
`C/C=C1\NC(=O)[C@H]([C@@H](C)O)NC(=O)c2csc(n2)-c2ccc(-c3nc(-c4nc(C(=O)NC5(C(=O)NCCCN6C(=O)CNC6=O)CC5)cs4)cs3)nc2-c2csc(n2)[C@H]([C@@H](C)O)NC(=O)c2csc(n2)[C@H](C(C)C)NC(=O)c2csc1n2`: the MIC in the series with Clostridioides difficile [5] was 0.5 µg/mL (≈ 0.408 µM); with Clostridioides difficile [6] it was 0.5 µg/mL (≈ 0.408 µM); in the series on Clostridioides difficile [7], 0.5 µg/mL (≈ 0.408 µM); in the series on Clostridioides difficile [8], 0.25 µg/mL (≈ 0.204 µM); with Clostridioides difficile [9], 0.5 µg/mL (≈ 0.408 µM); in the series with Clostridioides difficile [10] it was 0.5 µg/mL (≈ 0.408 µM). Further, the MIC with Staphylococcus aureus [1] was 1 µg/mL (≈ 0.815 µM); in the series with Clostridioides difficile [11], 0.5 µg/mL (≈ 0.408 µM); in the series with Clostridioides difficile [12], 0.5 µg/mL (≈ 0.408 µM); with Clostridioides difficile [13], 0.5 µg/mL (≈ 0.408 µM); in the series with Clostridioides difficile [2] it was 0.125 µg/mL (≈ 0.102 µM); in the series with Clostridioides difficile [14] it was 0.5 µg/mL (≈ 0.408 µM). In addition, the minimum inhibitory concentration (MIC) in the series with Clostridioides difficile [15] was 0.25 µg/mL (≈ 0.204 µM); in the series on Clostridioides difficile [16] it was 0.5 µg/mL (≈ 0.408 µM); in the series on Clostridioides difficile [17] it was 0.25 µg/mL (≈ 0.204 µM).
